# Data reported in paper PMC10112268, “Inhibition of Human Coronaviruses by Combinations of Host-Targeted and Direct-Acting Antivirals” (Antimicrobial Agents and Chemotherapy, 2023).
# Where two headings read alike, the source gives them in different places.
# Key:
# [1] = test system: SARS-CoV-2 isolate MAD6 (Wuhan-Hu-1 strain); experiment: Virus yield inhibition in infected Calu3 2B4 cells, plaque assay on Vero E6; type: cell-based; conditions: for IC50 / SARS-CoV-2 isolate MAD6 titers: 24 hpi; for IC50: read-out: IC50, virus yield; for SARS-CoV-2 titers: at 100 μM, Fig. 3, no drug 3.±0.1 × 10^5; for SARS-CoV-2 isolate MAD6 titers: no drug 3.4 ± 1 × 10^5
# HCoV-229E-GFP [2] = experiment: microbe, parasite or virus in culture; type: cell-based; conditions: for IC50: Human coronavirus 229E
# HCoV-OC43 [3] = experiment: microbe, parasite or virus in culture; type: cell-based
# [4] = test system: SARS-CoV-2 isolate 39896362_AG (omicron strain); experiment: microbe, parasite or virus in culture; type: cell-based; conditions: for IC50: Severe acute respiratory syndrome coronavirus 2, Vero C1008, omicron strain, AV from 1 h before adsorption, read-out: IC50, virus yield; for IC50 / SARS-CoV-2 isolate 39896362_AG titers: Fig. 1; for SARS-CoV-2 isolate 39896362_AG titers: no drug 1 ± 0.1 × 10^5
# HCoV-229E-GFP [5] = type: cell-based; conditions: no drug 3.5 ± 0.6 × 10^6
# HCoV-OC43 [6] = type: cell-based; conditions: no drug 3.2 ± 0.2 × 10^6
# SARS-CoV-2 (MAD6) = experiment: Drug combination (synergy) study, virus yield in Calu3 2B4, CompuSyn; type: cell-based; conditions: for SARS-CoV-2 titers: no drug 3.2 ± 0.2 × 10^5; for average DRI: for the named drug over its combinations, at Fa = 0.5 to 0.95
# in vitro [7] = conditions: human, CC50 (MTT assay), Huh-7
# in vitro [8] = conditions: human, CC50 (MTT assay), HCT-8
# in vitro [9] = conditions: African green monkey
# in vitro [10] = conditions: human
# [11] = test system: HCoV-229E, HCoV-OC43, and SARS-CoV-2; experiment: Antiviral assays, summary over all tested HCoVs; type: cell-based, human coronaviruses
# HCoV-229E-GFP [12] = experiment: Time of addition assay; type: cell-based; conditions: for IC50: Human coronavirus 229E, 24 hpi
# HCoV-OC43 [13] = experiment: Time of addition assay; type: cell-based; conditions: for IC50: 48 hpi
# [14] = test system: SARS-CoV-2 isolate MAD6 (Wuhan-Hu-1 strain); experiment: Time of addition assay; type: cell-based; conditions: for IC50: 24 hpi, read-out: IC50, SARS-CoV-2 production
# HCoV-229E-GFP [15] = experiment: Direct virucidal effect on virus particles; conditions: 10^5 PFU, 1 h at room temperature; LG 0 to 300 μM, VPA 0 to 300 mM
# HCoV-OC43 [16] = experiment: Direct virucidal effect on virus particles; conditions: 10^5 PFU, 1 h at room temperature; LG 0 to 300 μM, VPA 0 to 300 mM
# SARS-CoV-2 = experiment: Direct virucidal effect on virus particles; conditions: 10^5 PFU, 1 h at room temperature; LG 0 to 300 μM, VPA 0 to 300 mM
# TGEV = experiment: Antiviral effect against TGEV in WSL or ST cells, plaque assay on ST; type: cell-based, swine coronavirus TGEV; conditions: LG in WSL cells, VPA in ST cells
# Description: Figure S2. […] The inhibitory effect […]
# of LG or VPA was assayed on triplicate cultures of TGEV-infected WSL (wild swine macrophage cell line) or ST (swine testis) cells, respectively. After 1 h-pre-incubation with AVs, triplicate cultures were infected with the corresponding virus, at a MOI of 2 PFU/cell, in a reduced volume of medium containing the AV, for 2h, virus inoculum removed and cells washed twice with medium, before the addition of drug-containing fresh medium (supplemented with 2% FBS). Cultures were then incubated for 24 h at 37 °C; total virus (intracellular and extracellular) production was evaluated by plaque assay on triplicate cultures of ST cells. Left y-axis represents infectious virus progeny at 24 hpi and right y-axis, cell viability determined by MTT assay of each corresponding cell line. IC50 values and SI values […]
# [TGEV titers (PFU/ml): 1.1±0.1 x 108 in the absence of the drugs, […]
# (1 picture or pasted object on this page, not shown here)
# [17] = Severe acute respiratory syndrome coronavirus 2, Calu-3 2B4, specificity experiment (Fig. 3), Calu3 2B4
# [18] = at 100 μM, Fig. 3, no drug 4 ± 0.9 × 10^6
# [19] = at 100 μM, Fig. 3, no drug 1.8 ± 0.9 × 10^6
# [20] = Betacoronavirus 1, OC43, Huh-7, read-out: IC50, virus yield, specificity experiment (Fig. 3), Huh-7, 48 hpi
# [21] = Huh-7, read-out: IC50, virus yield, Huh-7, AV from 1 h before adsorption, 24 hpi, Fig. 1
# [22] = Betacoronavirus 1, OC43, Huh-7, read-out: IC50, virus yield, Huh-7, AV from 1 h before adsorption, 48 hpi, Fig. 1
smiles,measurement,setting,value
"O=C(O[C@@H]1Cc2c(O)cc(O)cc2O[C@@H]1c1ccc(O)c(O)c1)c1cc(O)c(O)c(O)c1 [ECG, epicatechin gallate]",IC50,[1]; [17],0.0501 mM
same,SARS-CoV-2 titers,[1],6 ± 0.3 × 10^4 PFU/mL
"O=C(O)c1cc(O)c(O)c(O)c1 [G, gallic acid]",inhibition of viral multiplication at nontoxic concentrations,"HCoV-229E-GFP [2]; Huh-7, Fig. 3",Neither G nor PG inhibited viral multiplication
same,HCoV-229E-GFP titers,HCoV-229E-GFP [2]; [18],3.1 ± 0.2 × 10^6 PFU/mL
same,inhibition of viral multiplication at nontoxic concentrations,"HCoV-OC43 [3]; Huh-7, Fig. 3",Neither G nor PG inhibited viral multiplication
same,HCoV-OC43 titers,HCoV-OC43 [3]; [19],1.2 ± 0.2 × 10^6 PFU/mL
same,IC50,[1]; [17],0.0405 mM
same,SARS-CoV-2 titers,[1],7.5 ± 0.2 × 10^4 PFU/mL
"CCCCCCCCOC(=O)c1cc(O)c(O)c(O)c1 [OG, octyl gallate]",IC50,"HCoV-229E-GFP [2]; Huh-7, read-out: IC50, virus yield, specificity experiment (Fig. 3), Huh-7, 24 hpi",3.9 µM
same,HCoV-229E-GFP titers,HCoV-229E-GFP [2]; [18],1.4 ± 0.5 × 10^3 PFU/mL
same,IC50,HCoV-OC43 [3]; [20],2.56 µM
same,HCoV-OC43 titers,HCoV-OC43 [3]; [19],5 ± 0.01 × 10^1 PFU/mL
"CCCOC(=O)c1cc(O)c(O)c(O)c1 [PG, propyl gallate]",inhibition of viral multiplication at nontoxic concentrations,"HCoV-229E-GFP [2]; Huh-7, Fig. 3",Neither G nor PG inhibited viral multiplication
same,HCoV-229E-GFP titers,HCoV-229E-GFP [2]; [18],2.2 ± 0.3 × 10^6 PFU/mL
same,IC50,HCoV-OC43 [3]; [20],22.5 µM
same,inhibition of viral multiplication at nontoxic concentrations,"HCoV-OC43 [3]; Huh-7, Fig. 3",Neither G nor PG inhibited viral multiplication
same,HCoV-OC43 titers,HCoV-OC43 [3]; [19],1.2 ± 0.3 × 10^6 PFU/mL
"CCC(CC)COC(=O)[C@H](C)N[P@](=O)(OC[C@H]1O[C@@](C#N)(c2ccc3c(N)ncnn23)[C@H](O)[C@@H]1O)Oc1ccccc1 [RDV, remdesivir]",selectivity index (SI=CC50/IC50),HCoV-229E-GFP [2],1732
same,IC50,HCoV-229E-GFP [2]; [21],0.0144 ± 0.0041 µM
same,HCoV-229E-GFP titers,"HCoV-229E-GFP [2]; at RDV 500 nM, 24 hpi, no drug 3 ± 0.5 × 10^6, Fig. 1",6 ± 0.1 × 10^2 PFU/mL
same,IC50,HCoV-OC43 [3]; [22],0.046 µM
same,selectivity index (SI=CC50/IC50),"HCoV-OC43 [3]; HCoV-OC43, Huh-7",435
same,HCoV-OC43 titers,"HCoV-OC43 [3]; at RDV 500 nM, 48 hpi, no drug 3.1 ± 0.9 × 10^6, Fig. 1",6 ± 0.1 × 10^2 PFU/mL
same,selectivity index (SI=CC50/IC50),"[1]; SARS-CoV-2 Wuhan-Hu-1, Calu3 2B4",102
same,IC50,"[1]; Severe acute respiratory syndrome coronavirus 2, Calu-3 2B4, Calu3 2B4, Wuhan-Hu-1 strain, AV from 1 h before adsorption, Fig. 1",0.00107 mM
same,SARS-CoV-2 isolate MAD6 titers,"[1]; at RDV 20 μM, Fig. 1",6 ± 0.3 × 10^2 PFU/mL
same,selectivity index (SI=CC50/IC50),"[4]; SARS-CoV-2 omicron, Vero E6",52
same,IC50,[4]; Vero E6,0.00163 ± 0.0002 mM
same,SARS-CoV-2 isolate 39896362_AG titers,[4]; at RDV 32 μM,5 ± 0.01 × 10^1 PFU/mL
same,HCoV-229E-GFP titers,HCoV-229E-GFP [5]; at 160 nM RDV,4 ± 0.2 × 10^2 PFU/mL
same,HCoV-OC43 titers,HCoV-OC43 [6]; at 320 nM RDV,1.6 ± 0.2 × 10^4 PFU/mL
same,SARS-CoV-2 titers,SARS-CoV-2 (MAD6); at 8 μM RDV,1.7 ± 0.2 × 10^3 PFU/mL
same,average DRI,SARS-CoV-2 (MAD6),4.31
same,CC50,in vitro [7]; 24 h cell incubation with AV,0.025 mM
same,CC50,in vitro [7]; 48 h cell incubation with AV,0.02 mM
same,CC50,in vitro [8]; 24 h cell incubation with AV,0.043 mM
same,CC50,in vitro [8]; 48 h cell incubation with AV,0.038 mM
same,CC50,in vitro [9],0.085 mM
same,CC50,in vitro [10],0.109 mM
"CCCC(CCC)C(=O)O [VPA, valproic acid]",IC50,HCoV-229E-GFP [2]; [21],9480 ± 1100 µM
same,HCoV-229E-GFP titers,"HCoV-229E-GFP [2]; at VPA 40 mM, 24 hpi, no drug 3 ± 0.5 × 10^6, Fig. 1",2.5 ± 0.3 × 10^2 PFU/mL
same,IC50,HCoV-OC43 [3]; [22],9330 ± 2100 µM
same,HCoV-OC43 titers,"HCoV-OC43 [3]; at VPA 40 mM, 48 hpi, no drug 3.1 ± 0.9 × 10^6, Fig. 1",1.2 ± 0.1 × 10^2 PFU/mL
same,SARS-CoV-2 isolate MAD6 titers,"[1]; at VPA 100 mM, Fig. 1",5 ± 0.01 × 10^1 PFU/mL
same,IC50,[4]; Vero E6,5.15 ± 0.3 mM
same,SARS-CoV-2 isolate 39896362_AG titers,[4]; at VPA 128 mM,1 ± 0.1 × 10^2 PFU/mL
same,IC50,"[11]; average over all tested HCoVs, read-out: average IC50 value",7.2 mM
same,IC50,"[11]; range over tested HCoVs, read-out: IC50 values, range over HCoVs",5 to 9 mM
same,IC50,"HCoV-229E-GFP [12]; read-out: IC50, HCoV-229E-GFP production, AV added 0 hpi",9.64 mM
same,IC50,"HCoV-229E-GFP [12]; read-out: IC50, HCoV-229E-GFP production, AV added 2 hpi",9.49 mM
same,IC50,"HCoV-229E-GFP [12]; read-out: IC50, HCoV-229E-GFP production, AV added −3 hpi (1 h before adsorption)",9.48 mM
same,HCoV-229E-GFP average titers,"HCoV-229E-GFP [12]; at 40 mM VPA, average of addition times, no drug 4 ± 0.6 × 10^6",6 ± 2 × 10^2 PFU/mL
same,IC50,"HCoV-OC43 [13]; Betacoronavirus 1, OC43, read-out: IC50, HCoV-OC43 production, AV added 0 hpi",9.69 mM
same,IC50,"HCoV-OC43 [13]; Betacoronavirus 1, OC43, read-out: IC50, HCoV-OC43 production, AV added 2 hpi",9.49 mM
same,IC50,"HCoV-OC43 [13]; Betacoronavirus 1, OC43, read-out: IC50, HCoV-OC43 production, AV added −3 hpi (1 h before adsorption)",9.87 mM
same,HCoV-OC43 average titers,"HCoV-OC43 [13]; at 40 mM VPA, average of addition times, no drug 3.5 ± 0.5 × 10^6",5 ± 0.01 × 10^1 PFU/mL
same,IC50,"[14]; Severe acute respiratory syndrome coronavirus 2, AV added 0 hpi",5.02 mM
same,IC50,"[14]; Severe acute respiratory syndrome coronavirus 2, AV added 2 hpi",5.04 mM
same,IC50,"[14]; Severe acute respiratory syndrome coronavirus 2, AV added −2 hpi (1 h before adsorption)",4.99 mM
same,SARS-CoV-2 average titers,"[14]; at 100 mM VPA, average of addition times, no drug 3.4 ± 0.2 × 10^5",5 ± 0.01 × 10^1 PFU/mL
same,HCoV-229E-GFP titers,HCoV-229E-GFP [5]; at 32 mM VPA,5 ± 0.3 × 10^2 PFU/mL
same,HCoV-OC43 titers,HCoV-OC43 [6]; at 32 mM VPA,5 ± 0.01 × 10^1 PFU/mL
same,SARS-CoV-2 titers,SARS-CoV-2 (MAD6); at 16 mM VPA,4 ± 0.1 × 10^4 PFU/mL
same,average DRI,SARS-CoV-2 (MAD6),5.19
same,direct virucidal effect (change in virus titers),HCoV-229E-GFP [15],No decrease in virus titers
same,direct virucidal effect (change in virus titers),HCoV-OC43 [16],No decrease in virus titers
same,direct virucidal effect (change in virus titers),SARS-CoV-2,No decrease in virus titers
same,inhibition of TGEV multiplication,TGEV,inhibited the multiplication
same,CC50,in vitro [7]; 24 h cell incubation with AV,70 mM
same,CC50,in vitro [7]; 48 h cell incubation with AV,66 mM
same,CC50,in vitro [8]; 24 h cell incubation with AV,95.7 mM
same,CC50,in vitro [8]; 48 h cell incubation with AV,76.2 mM
